Measured values from patent US12191014B1, “Personal analysis and chronotherapy” (CERNER INNOVATION, INC., priority 2013, dated 2025).

Legend:
[1] = test system: blood pressure of patients; conditions: cited from earlier work; for effect on asleep versus awake SBP and DBP means: ACEI, evening or bedtime administration; for therapeutic effect on sleeping BP: ARB, bedtime in comparison with morning ingestion schedule
hypertensive subjects = assay: 32-day losartan administration-time study with NIBP/SBP time series and spectral analysis; format: in vivo, human
Procedure: Because dipping status is determined by (a) sleep BP and (b) awake BP, it might be expected that the 2 determinants would have equal weight. […] Although there is evidence that an extreme dipping pattern may lead to nocturnal cerebral ischemia, there is also evidence that nondippers are at greater risk for cardiovascular morbidity than dippers, both for cardiovascular events and for progression of kidney disease. […] This is exactly what we have observed with losartan.
To illustrate the advantages of the present technology, a, a series of alternate schedules for administering a single, strong 100 mg oral dose of the rapidly-absorbed angiotensin receptor blocker, losartan, were explored (03:00; 09:00; 21:00; etc.). Subjects […] informed consent according to applicable U.S. law and regulations. Baseline drug-holiday NIBP measurements were collected in each subject for a period of 32 days. Subjects who had other comorbid health conditions besides hypertension were excluded, as were subjects who required two or more antihypertensive medications for blood pressure control.
Under the experimental protocol, a two-week wash-out interval was interposed between a 32-day treatment period with one administration time and the next 32-day period. Subjects were randomized as to which administration time sequence.
All of the 32-day timing regimens were monitored so as to establish administration timing compliance with a timing precision of +15 min. […]
Records were randomly selected from a patient health records data warehouse, which is derived from Cerner electronic health record (EHR) from 100% of episodes of care that are incident upon the participating health institutions. […] The SBP data is cast into the form of a time series, and analyzed the sequences using the open-source R statistical packages psd, seewave, and tuneR. […]

blood pressure patient = assay: Example 1: evaluation pack trial of Losartan formulations against diagnostic targets; format: in vivo, human
Procedure: Example 1: A blood pressure patient is currently medicated, but appears to be medicated at an insufficient level. For example, the patient has been taking 50 mg of Losartan at various ingestion times, but has experienced some severe headaches and nose bleeds in the afternoon particularly on stressful days.
In an embodiment, the evaluation package includes four different formulations labeled A, B, 3A, and 5A arranged in separable columns of constant medication 1027, 1028, 1025, 1030, and 1010, that may be separated by manually tearing package 1000 along perforated divisions 1096, 1097, 1098, and 1099. In an embodiment, dose pack 1000 is formed by selectively applying an adhesive to a foil backing layer to adhere the foil to transparent plastic front layer 1012 containing pills such as 1013 as shown in FIG. 10. In an embodiment, a label such as “5A” is provided on the dose itself such as label 1015 on pill 1013 as viewable in dose display container 1014, and/or on the packaging in label 1011 of constant formulation dosepack represented in column 1010. Advantageously, a patient tears along a perforation 1096 while taking dose A, and only need carry a single column such as 1027 while taking an “A” formulation dose. Similarly columns 1026, 1025, 1030 and 1010 are separable by perforations 1096, 1097, 1098 and 1099. An embodiment of a constant formulation dose pack has 32 cycles of dosage. An embodiment of a constant formulation dose pack has 10 cycles of dosage.
In an embodiment, the “A” formulation corresponds to a pulsatile application of 100 mg Losartan that applies medication nominally 20 minutes after ingestion, the “3A” formulation delays application of 100 mg of Losartan to 3 hours after ingestion. The “5A” formulation delays application of 100 mg of Losartan to 5 hours after ingestion. The “B” formulation is 5 mg amlodipine besylate that applies medication approximately 5 hours after ingestion. In an embodiment the dose sequence spectrum is chosen to center the medication application around a typical peak level. For example, with blood pressure medicine application, a peak plasma level between midnight and 6 a.m. would provide dosage delays centered about 3 a.m. for a patient who is thought to be a normal dipper. An embodiment puts at least one dosage application time in a period of normal peak, for example, between midnight and 6 a.m. for blood pressure application. In an embodiment, different dose levels are provided, such as a trial with 50 mg Losartan, or 150 mg Losartan for the same application time.
Turning now to FIG. 2, there is depicted in 100 a method for a computer to execute a method of personal health evaluation. At 205, a patient manager such as 140 is configured through a clinician evaluation template to present results to the patient on patient interface 141 after the clinician has released the information to the patient for viewing, explanation. In an embodiment a template includes a monitor identifier, a patient identifier, such as social security number and/or full name and zip code, and an identification code for the dose pack such as product ID code “AB27YAM” shown in identifier 1050. In an embodiment the template includes a set of patient instructions to guide patient through the use of the monitor device. In an embodiment, the patient is instructed to wear the monitor continuously with unmonitored stretches of no greater than a half an hour. […] In an embodiment, the template includes information such as gender (male or female), weight, height, body mass index, other conditions, other mediations, patient history, patient age, a diagnostic target, a clinical input to be monitored, a period statistic to be measured, a period variability measure to be evaluated, a variation, etc. […]

CCOC(=O)[C@H](CCc1ccccc1)N[C@H]1CCc2ccccc2N(CC(=O)O)C1=O [benazepril]
effect on asleep versus awake SBP and DBP means [1]: more marked effect on the asleep than awake

C[C@H](CS)C(=O)N1CCC[C@H]1C(=O)O [captopril]
effect on asleep versus awake SBP and DBP means [1]: more marked effect on the asleep than awake

CCOC(=O)[C@H](CCc1ccccc1)N[C@@H](C)C(=O)N1CCC[C@H]1C(=O)O [enalapril]
effect on asleep versus awake SBP and DBP means [1]: more marked effect on the asleep than awake

CCCCC1=NC2(CCCC2)C(=O)N1Cc1ccc(-c2ccccc2-c2nnn[nH]2)cc1 [irbesartan]
therapeutic effect on sleeping BP [1]: greater therapeutic effect on sleeping BP

NCCCC[C@H](N[C@@H](CCc1ccccc1)C(=O)O)C(=O)N1CCC[C@H]1C(=O)O [lisinopril]
effect on asleep versus awake SBP and DBP means [1]: more marked effect on the asleep than awake

CCCCc1nc(Cl)c(CO)n1Cc1ccc(-c2ccccc2-c2nn[nH]n2)cc1 [losartan]
reduction in average blood pressure (hypertensive subjects; 100 mg oral dose, all dosing schedules (03:00; 09:00; 21:00), 32-day treatment periods): reduction in average blood pressure
phase-slips between circadian BP and drug administration (hypertensive subjects; 100 mg, 21:00 administration time): occasionally detected
normalization of dipping pattern (hypertensive subjects; administration such that peak plasma levels occur prior to midnight or prior to 06:00): can normalize extreme dippers, non-dippers, and risers and convert them to normal dippers
dipping pattern (blood pressure patient; 100 mg at 21:00): achieved a normal dipping pattern
entropy relative to untreated regimen (blood pressure patient; 100 mg at 21:00): greatly improved entropy
entropy versus target (blood pressure patient; 100 mg at 21:00): acceptable entropy
max SBP versus target (blood pressure patient; 100 mg at 21:00): unacceptable max SBP
range of SBP versus target (blood pressure patient; 100 mg at 21:00): unacceptable range
rolloff (blood pressure patient; 100 mg at 21:00): acceptable rolloff improvement
significance versus target (blood pressure patient; 100 mg at 21:00): acceptable significance
stability of rhythm (blood pressure patient; 100 mg at 21:00): improved stability of rhythm
desired targets met (blood pressure patient; 100 mg at 21:00, compared with untreated regimen): 5 of 7
therapeutic effect on sleeping BP [1]: greater therapeutic effect on sleeping BP

CCC[C@H](N[C@@H](C)C(=O)N1[C@H](C(=O)O)C[C@@H]2CCCC[C@@H]21)C(=O)OCC [perindopril]
effect on asleep versus awake SBP and DBP means [1]: more marked effect on the asleep than awake

CCOC(=O)[C@H](CCc1ccccc1)N[C@@H](C)C(=O)N1Cc2ccccc2C[C@H]1C(=O)O [quinapril]
effect on asleep versus awake SBP and DBP means [1]: more marked effect on the asleep than awake

CCOC(=O)[C@H](CCc1ccccc1)N[C@@H](C)C(=O)N1[C@H](C(=O)O)C[C@@H]2CCC[C@@H]21 [ramipril]
effect on asleep versus awake SBP and DBP means [1]: more marked effect on the asleep than awake

CCOC(=O)[C@H](CCc1ccccc1)N[C@@H](C)C(=O)N1CC2(C[C@H]1C(=O)O)SCCS2 [spirapril]
effect on asleep versus awake SBP and DBP means [1]: more marked effect on the asleep than awake

CCCc1nc2c(C)cc(-c3nc4ccccc4n3C)cc2n1Cc1ccc(-c2ccccc2C(=O)O)cc1 [telmisartan]
therapeutic effect on sleeping BP [1]: greater therapeutic effect on sleeping BP

CCOC(=O)[C@H](CCc1ccccc1)N[C@@H](C)C(=O)N1[C@H](C(=O)O)C[C@H]2CCCC[C@@H]21 [trandolapril]
effect on asleep versus awake SBP and DBP means [1]: more marked effect on the asleep than awake

CCCCC(=O)N(Cc1ccc(-c2ccccc2-c2nnn[nH]2)cc1)[C@H](C(=O)O)C(C)C [valsartan]
therapeutic effect on sleeping BP [1]: greater therapeutic effect on sleeping BP

C[C@H](CSC(=O)c1ccccc1)C(=O)N1C[C@@H](Sc2ccccc2)C[C@H]1C(=O)O [zofenopril]
effect on asleep versus awake SBP and DBP means [1]: more marked effect on the asleep than awake
